Test results taken from patent US11590139B2, “Substituted aminopurine compounds, compositions thereof, and methods of treatment therewith” (Signal Pharmaceuticals, LLC, priority 2014, dated 2023).

System: Lox-IMVI melanoma cell line
Assay: Lox-IMVI anti-proliferative assay (growth inhibition, Cell Titer-Glo)
Assay type: cell-based, human
Conditions: Homo sapiens; Lox-IMVI melanoma cell line, anti-proliferative assay; read-out: Activity (IC50 activity level)
Procedure, shortened: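 Cells grown in RPMI + 10% FBS were exposed to compound at 0.5 nM to 10 μM (10-point, 3-fold dilution, duplicate, 0.2% DMSO final) for 72 h at 37 °C, 5% CO2. Viability was read by ATP luminescence at t0 and 72 h. IC50 came from a four-parameter logistic fit normalized to DMSO control.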

SMILES	IC50 [nM]
N#Cc1cc(F)c(Nc2nc3cnc(N[C@@H]4CCCN(Cc5ccccc5)C4)nc3n2[C@H]2CC[C@@H](C(N)=O)CC2)c(Cl)c1 [Example 777, (1S,4s)-4-(2-((R)-1-benzylpiperidin-3-ylamino)-8-(2-chloro-4-cyano-6-fluorophenylamino)-9H-purin-9-yl)cyclohexanecarboxamide]	> 1000
NC(=O)[C@H]1CC[C@@H](n2c(Nc3c(F)cc(F)cc3Cl)nc3cnc(N[C@@H]4CCCN(C(=O)Nc5ccccc5)C4)nc32)CC1 [Example 778, (R)-3-(9-((1s,4S)-4-carbamoylcyclohexyl)-8-(2-chloro-4,6-difluorophenylamino)-9H-purin-2-ylamino)-N-phenylpiperidine-1-carboxamide]	> 1000
NC(=O)[C@H]1CC[C@@H](n2c(Nc3c(Cl)cc(Cl)cc3Cl)nc3cnc(N[C@@H]4CCCN(C(=O)Nc5ccccc5)C4)nc32)CC1 [Example 779, (R)-3-(9-((1s,4S)-4-carbamoylcyclohexyl)-8-(2,4,6-trichlorophenylamino)-9H-purin-2-ylamino)-N-phenylpiperidine-1-carboxamide]	500 to 1000
N#Cc1cc(Cl)c(Nc2nc3cnc(N[C@@H]4CCCN(C(=O)Nc5ccccc5)C4)nc3n2[C@H]2CC[C@@H](C(N)=O)CC2)c(Cl)c1 [Example 780, (R)-3-(9-((1s,4S)-4-carbamoylcyclohexyl)-8-(2,6-dichloro-4-cyanophenylamino)-9H-purin-2-ylamino)-N-phenylpiperidine-1-carboxamide]	> 1000
NC(=O)[C@H]1CC[C@@H](n2c(Nc3c(F)cc(F)cc3F)nc3cnc(N[C@@H]4CCCN(C(=O)Nc5ccccc5)C4)nc32)CC1 [Example 781, (R)-3-(9-((1s,4S)-4-carbamoylcyclohexyl)-8-(2,4,6-trifluorophenylamino)-9H-purin-2-ylamino)-N-phenylpiperidine-1-carboxamide]	> 1000
NC(=O)[C@H]1CC[C@@H](n2c(Nc3c(F)cc(Cl)cc3F)nc3cnc(N[C@@H]4CCCN(C(=O)Nc5ccccc5)C4)nc32)CC1 [Example 782, (R)-3-(9-((1s,4S)-4-carbamoylcyclohexyl)-8-(4-chloro-2,6-difluorophenylamino)-9H-purin-2-ylamino)-N-phenylpiperidine-1-carboxamide]	> 1000
NC(=O)[C@H]1CC[C@@H](n2c(Nc3c(F)cc(Cl)cc3Cl)nc3cnc(N[C@@H]4CCCN(C(=O)Nc5ccccc5)C4)nc32)CC1 [Example 783, (R)-3-(9-((1s,4S)-4-carbamoylcyclohexyl)-8-(2,4-dichloro-6-fluorophenylamino)-9H-purin-2-ylamino)-N-phenylpiperidine-1-carboxamide]	> 1000
NC(=O)[C@H]1CC[C@@H](n2c(Nc3c(Cl)cc(F)cc3Cl)nc3cnc(N[C@@H]4CCCN(C(=O)Nc5ccccc5)C4)nc32)CC1 [Example 784, (R)-3-(9-((1s,4S)-4-carbamoylcyclohexyl)-8-(2,6-dichloro-4-fluorophenylamino)-9H-purin-2-ylamino)-N-phenylpiperidine-1-carboxamide]	> 1000
N#Cc1cc(F)c(Nc2nc3cnc(N[C@@H]4CCCN(C(=O)Nc5ccccc5)C4)nc3n2[C@H]2CC[C@@H](C(N)=O)CC2)c(Cl)c1 [Example 785, (R)-3-(9-((1s,4S)-4-carbamoylcyclohexyl)-8-(2-chloro-4-cyano-6-fluorophenylamino)-9H-purin-2-ylamino)-N-phenylpiperidine-1-carboxamide]	> 1000
CC1(C)COCC[C@H]1Nc1ncc2nc(Nc3c(F)cc(Cl)cc3F)n([C@H]3CC[C@@H](C(N)=O)CC3)c2n1 [Example 786, (1S,4s)-4-(8-(4-chloro-2,6-difluorophenylamino)-2-((R)-3,3-dimethyltetrahydro-2H-pyran-4-ylamino)-9H-purin-9-yl)cyclohexanecarboxamide]	> 1000
Cc1ccc(S(=O)(=O)N2CCC[C@@H](Nc3ncc4nc(Nc5c(F)cc(F)cc5Cl)n([C@H]5CC[C@@H](C(N)=O)CC5)c4n3)C2)cc1 [Example 787, (1S,4s)-4-(8-(2-chloro-4,6-difluorophenylamino)-2-((R)-1-tosylpiperidin-3-ylamino)-9H-purin-9-yl)cyclohexanecarboxamide]	> 1000
Cc1ccc(S(=O)(=O)N2CCC[C@@H](Nc3ncc4nc(Nc5c(Cl)cc(Cl)cc5Cl)n([C@H]5CC[C@@H](C(N)=O)CC5)c4n3)C2)cc1 [Example 788, (1S,4s)-4-(2-((R)-1-tosylpiperidin-3-ylamino)-8-(2,4,6-trichlorophenylamino)-9H-purin-9-yl)cyclohexanecarboxamide]	> 1000
Cc1ccc(S(=O)(=O)N2CCC[C@@H](Nc3ncc4nc(Nc5c(Cl)cc(C#N)cc5Cl)n([C@H]5CC[C@@H](C(N)=O)CC5)c4n3)C2)cc1 [Example 789, (1S,4s)-4-(8-(2,6-dichloro-4-cyanophenylamino)-2-((R)-1-tosylpiperidin-3-ylamino)-9H-purin-9-yl)cyclohexanecarboxamide]	> 1000
Cc1ccc(S(=O)(=O)N2CCC[C@@H](Nc3ncc4nc(Nc5c(F)cc(C#N)cc5F)n([C@H]5CC[C@@H](C(N)=O)CC5)c4n3)C2)cc1 [Example 790, (1S,4s)-4-(8-(4-cyano-2,6-difluorophenylamino)-2-((R)-1-tosylpiperidin-3-ylamino)-9H-purin-9-yl)cyclohexanecarboxamide]	> 1000
Cc1ccc(S(=O)(=O)N2CCC[C@@H](Nc3ncc4nc(Nc5c(F)cc(F)cc5F)n([C@H]5CC[C@@H](C(N)=O)CC5)c4n3)C2)cc1 [Example 791, (1S,4s)-4-(2-((R)-1-tosylpiperidin-3-ylamino)-8-(2,4,6-trifluorophenylamino)-9H-purin-9-yl)cyclohexanecarboxamide]	> 1000
Cc1ccc(S(=O)(=O)N2CCC[C@@H](Nc3ncc4nc(Nc5c(F)cc(Cl)cc5F)n([C@H]5CC[C@@H](C(N)=O)CC5)c4n3)C2)cc1 [Example 792, (1S,4s)-4-(8-(4-chloro-2,6-difluorophenylamino)-2-((R)-1-tosylpiperidin-3-ylamino)-9H-purin-9-yl)cyclohexanecarboxamide]	> 1000
Cc1ccc(S(=O)(=O)N2CCC[C@@H](Nc3ncc4nc(Nc5c(F)cc(Cl)cc5Cl)n([C@H]5CC[C@@H](C(N)=O)CC5)c4n3)C2)cc1 [Example 793, (1S,4s)-4-(8-(2,4-dichloro-6-fluorophenylamino)-2-((R)-1-tosylpiperidin-3-ylamino)-9H-purin-9-yl)cyclohexanecarboxamide]	> 1000
Cc1ccc(S(=O)(=O)N2CCC[C@@H](Nc3ncc4nc(Nc5c(Cl)cc(F)cc5Cl)n([C@H]5CC[C@@H](C(N)=O)CC5)c4n3)C2)cc1 [Example 794, (1S,4s)-4-(8-(2,6-dichloro-4-fluorophenylamino)-2-((R)-1-tosylpiperidin-3-ylamino)-9H-purin-9-yl)cyclohexanecarboxamide]	> 1000
Cc1ccc(S(=O)(=O)N2CCC[C@@H](Nc3ncc4nc(Nc5c(F)cc(C#N)cc5Cl)n([C@H]5CC[C@@H](C(N)=O)CC5)c4n3)C2)cc1 [Example 795, (1S,4s)-4-(8-(2-chloro-4-cyano-6-fluorophenylamino)-2-((R)-1-tosylpiperidin-3-ylamino)-9H-purin-9-yl)cyclohexanecarboxamide]	> 1000
